Laboratory results taken from patent publication US11000502B2, “Antimicrobial compositions comprising copper-hydroxypyrone complexes” (United Kingdom Research and Innovation, priority 2017, dated 2021).

Legend:
[1] = test system: E. coli NCTC1110; experiment: In vitro antibacterial assay for liquid copper solutions (turbidimetric E. coli growth inhibition); type: cell-based
Protocol: Preparation of Copper Complexes with EDTA, Maltol and Ethyl Maltol for Antimicrobial Testing
Cu-EDTA complexes were freshly prepared by dissolving CuCl2.2H2O and disodium ethylenediaminetetraacetate (EDTA) di-hydrate in UHP water. The pH was adjusted to 7.5±0.2 with 1M NaOH. Various Cu:EDTA ratios were achieved by maintaining concentration copper at 20 mM (ca. 1270 ppm), whilst changing that of EDTA—20 and 200 mM—thus achieving Cu-EDTA ratios of 1:1 and 1:10, respectively.
CuMaltol (ratio 1:1) was prepared by mixing equivalent volumes of 100 mM CuCl2.2H2O solution with an alkaline (pH>11) 100 mM maltol solution and quickly diluting the mixture to 10 mM Cu (final pH of 5.7).
Cu Ethylmaltol (ratio 1:1) was prepared by mixing appropriate volumes of 80 mM CuCl2.2H2 O solution with an alkaline (pH>10.5) 20 mM ethylmaltol solution and quickly diluting the mixture to 10 mM Cu and 10 mM ethylmaltol (final pH of 7.2).
CuMaltol (ratio 1:4) was prepared by mixing appropriate volumes of 80 mM CuCl2.2H2O solution with an alkaline (pH>10.5) 60 mM maltol solution and quickly diluting the mixture to 10 mM Cu and 40 mM maltol (final pH of 8.5).
Cu Ethylmaltol (ratio 1:4) was prepared by mixing appropriate volumes of 80 mM CuCl2.2H2O solution with an alkaline (pH>10.5) 60 mM ethylmaltol solution and quickly diluting the mixture to 10 mM Cu and 40 mM ethylmaltol (final pH of 8.5).
Heavy Metal MOPS (HMM) Medium, pH 7.2±0.2.
HMM is a defined medium developed for testing heavy metals and here was supplemented with glucose and cas-amino acids (acid hydrolysate of casein) and optionally with 4% BSA. HMM was prepared from concentrated stock solutions of each reagent, and pH adjusted to 7.2±0.2 (Table 1). Freshly prepared medium was immediately filtered through a 0.22 micron membrane and stored at 4±2° C.
In Vitro Antibacterial Assay for Liquid Copper Solutions
Antimicrobial activity was assessed through determination of E. coli NCTC1110 growth inhibition in the presence of copper compounds. A turbidimetric assay was used to follow bacterial concentration over time as this is proportional to optical density (OD at 595 nm) in liquid medium. Bacterial cultures were grown overnight in HMM at 30° C. under constant shaking (80 rpm). On the day of the assay, the OD of the bacterial suspension was measured at 595 nm on a plate reader and diluted in HMM to achieve an OD of 0.05. […] Final copper concentrations in the assay ranged between 0.4 and 50 ppm, and OD was measured every hour for a typical period of 6 to 8 hours. OD background, i.e. OD absorbance not caused by bacteria, was determined to remove readout interference from copper and broth. Growth inhibition was calculated as follows: […]

[2] = Exemplification of redox protection (copper maltol degradation to cuprous hydroxide); type: physicochemical; details: pH 11.8 with sodium hydroxide; overnight (A) / several days (B, 30% (w/w) PEG)
Protocol: Exemplification of Redox Protection
A 40 mM copper stock was prepared by dissolving 0.347 g copper chloride dihydrate in 50 mL water. The resulting solution was blue.
A 160 mM maltol stock was prepared by dissolving 1.01 g maltol in 50 mL water and pH adjusting with NaOH (pH>10.5. This produced a clear solution.
Experiment A: Copper Maltol Degradation
The copper and maltol stocks were mixed in water at 1:1 ratios (v:v) producing a green solution. pH was then adjusted to 11.8 with sodium hydroxide to accelerate redox conversion.
Experiment B: Copper Maltol-PEG Assemblies Prevent Redox Conversion
Same as experiment A but 30% (w/w) PEG was added.

## Copper ethylmaltol
[1]; HMM with 4% BSA, 6 hours, ratios 1:1 and 1:4
  antimicrobial properties in protein-rich environments: retained

## O=C([O-])CN(CCN(CC(=O)[O-])CC(=O)O)CC(=O)O.[Cu+2] [copper EDTA, reference compound]
[1]; HMM pH 7.2, 6 hours, Cu:EDTA 1:1 and 1:10
  antibacterial action against E. coli (FIG. 1): significantly suppressing its antibacterial action

## copper maltol
[2]
  redox conversion of Cu2+ to cuprous hydroxide (red precipitate): a red precipitate (cuprous hydroxide) deposited
[1]; bacterial media (HMM) comprising 4% BSA, 40 ppm copper, 6 hours
  suppression of E. coli growth: completely suppressed

## [Cl][Cu][Cl] [copper chloride, reference compound]
[1]; bacterial media (HMM) comprising 4% BSA, 50 ppm copper, 6 hours
  E. coli growth inhibition: 60%
